From patent US20100035755A1, “METHOD OF CONTROLLING WEEDS IN A TURF GRASS BY USING SULFONYLUREA COMPOUNDS” (Moghu Research Center Ltd., priority 2008, published 2010)

How the values were obtained:
[1] = test system: Zoysia japonica; experiment: Turf grass selectivity, greenhouse pot test; type: in vivo; conditions: for phytotoxicity (visual assessment 0-10): Zoysia japonica
From the text: (§1) Turf mats of Zoysia grass, bentgrass, Kentucky bluegrass, or perennial rye grass known as cool season turfgrass or western grass were purchased and cut into a piece having 10 cm×20 cm size. Then, each piece was transplanted in a rectangular plastic pot (surface area of 300 cm^2) in which sandy loam and mixed top soil (Boo-Nong Top Soil No. 3, for horticultural use) are filled in 1:1 ratio. After the transplantation, the grasses were cut once a week to maintain the blade height at 0.5-1.0 cm and cultivated for one month in a green house of which temperature was kept at 25˜30° C. for daytime and 15˜25° C. for nighttime, respectively. Then, the ‘test chemical’ of the above Examples 1 and 2 or ‘control chemical’ was applied thereto in an amount of 400, 200, 100, 50, 25, 12, 6, 3 g ai/ha. As a “control chemical”, pyrazolsulfuron ethyl wettable agent (manufactured by Dongbu Fine Chemicals; herein after, referred to as ‘control chemical No. 1’) and flazasulfuron (manufactured by Dongbu HiTek; herein after, referred to as ‘control chemical No. 2’), both sulfonylurea herbicides for a turf grass, were used. Application was carried out by using a track sprayer (R&D Sprayer, USA) equipped with Teejet 8002 nozzle (Spraying Systems Co., USA), and the application amount was adjusted to 2,000 L/ha, which is a typical application amount for a golf course in Korea. Application solution was prepared by diluting the “test chemical” or the “control chemical” with tap water. […] The test was repeated three times in a random arrangement and the results are given in average value of each test (see Table 2 below).

[2] = test system: Kentucky bluegrass; experiment: Turf grass selectivity, greenhouse pot test; type: in vivo, Poa pratensis
From the text: as §1

[3] = test system: Cyperus amuricus; experiment: Weed spectrum, greenhouse pot test; type: in vivo; conditions: two weeks after application
From the text: (§2) To a rectangular plastic pot (surface area of 300 cm^2) in which sandy loam and mixed top soil (Boo-Nong Top Soil No. 3, for horticultural use) are filled in 1:1 ratio, eight different kinds of weed seeds including Poa annua and Digitaria sanguinalis as poaceae weed, Cyperus amuricus as cyperaceae weeds and Trifolium repens, Kummerowia striata, fleabane, Veronica officinalis and Portulaca oleracea as broadleaf weeds were sewn (50 to 100 seeds per each weed). These weeds are representative examples of the weeds which typically thrive in a turf grass field.
(§3) The pot was kept in a greenhouse which was maintained at 25˜30° C. for daytime and 15˜25° C. for nighttime, respectively, and irrigation was carried out regularly. Fourteen days after seeding, when the turf grass and the weeds reached approximately at three-leaf stage, the weed seeds were again sewn in separate two pots or “Test chemical” and “Control chemical” were applied in the same manner as the method described above. In this regard, when plants were cultivated for two weeks and then the chemical application was carried out, it is designated as “post-emergence” treatment. On the other than, when the seeding was carried right before the chemical application, it is designated as “pre-emergence” treatment. Preparation of a chemical solution, application method, etc. are the same as above described for evaluation of turf grass selectivity. Two weeks after the chemical application, efficacy of the chemicals for each type of the weeds was evaluated (visual evaluation) based on 0 to 100 scale (i.e., 0 indicates no efficacy and 100 indicates complete weed control).

[4] = test system: Digitaria sanguinalis; experiment: Weed spectrum, greenhouse pot test; type: in vivo; conditions: two weeks after application
From the text: as §2, §3

[5] = test system: Kummerowia striata; experiment: Weed spectrum, greenhouse pot test; type: in vivo; conditions: two weeks after application
From the text: as §2, §3

[6] = test system: Poa annua; experiment: Weed spectrum, greenhouse pot test; type: in vivo; conditions: two weeks after application
From the text: as §2, §3

[7] = test system: Portulaca oleracea; experiment: Weed spectrum, greenhouse pot test; type: in vivo; conditions: two weeks after application
From the text: as §2, §3

[8] = test system: Trifolium repens; experiment: Weed spectrum, greenhouse pot test; type: in vivo; conditions: two weeks after application
From the text: as §2, §3

[9] = test system: Veronica officinalis; experiment: Weed spectrum, greenhouse pot test; type: in vivo; conditions: two weeks after application
From the text: as §2, §3

## COc1cc(OC)nc(NC(=O)NS(=O)(=O)c2ncccc2C(F)(F)F)n1 [Control chemical No. 2, Flazasulfuron, reference compound]
[1]; 50 g ai/ha or less
  safety to Zoysia japonica: safe
[1]; 3 g ai/ha, 2 weeks
  phytotoxicity (visual assessment 0-10): 0
[1]; 3 g ai/ha, 4 weeks
  phytotoxicity (visual assessment 0-10): 0
[1]; 6 g ai/ha, 2 weeks
  phytotoxicity (visual assessment 0-10): 0
[1]; 6 g ai/ha, 4 weeks
  phytotoxicity (visual assessment 0-10): 0
[1]; 12 g ai/ha, 2 weeks
  phytotoxicity (visual assessment 0-10): 0
[1]; 12 g ai/ha, 4 weeks
  phytotoxicity (visual assessment 0-10): 0
[1]; 25 g ai/ha, 2 weeks
  phytotoxicity (visual assessment 0-10): 0
[1]; 25 g ai/ha, 4 weeks
  phytotoxicity (visual assessment 0-10): 0
[1]; 50 g ai/ha, 2 weeks
  phytotoxicity (visual assessment 0-10): 1
[1]; 50 g ai/ha, 4 weeks
  phytotoxicity (visual assessment 0-10): 1
[1]; 100 g ai/ha, 2 weeks
  phytotoxicity (visual assessment 0-10): 2
[1]; 100 g ai/ha, 4 weeks
  phytotoxicity (visual assessment 0-10): 2
[1]; 200 g ai/ha, 2 weeks
  phytotoxicity (visual assessment 0-10): 4
[1]; 200 g ai/ha, 4 weeks
  phytotoxicity (visual assessment 0-10): 3
[1]; 400 g ai/ha, 2 weeks
  phytotoxicity (visual assessment 0-10): 7
[1]; 400 g ai/ha, 4 weeks
  phytotoxicity (visual assessment 0-10): 6
[2]; 3 g ai/ha, 2 weeks
  phytotoxicity (visual assessment 0-10): 10
[2]; 3 g ai/ha, 4 weeks
  phytotoxicity (visual assessment 0-10): 10
[2]; 6 g ai/ha, 2 weeks
  phytotoxicity (visual assessment 0-10): 10
[2]; 6 g ai/ha, 4 weeks
  phytotoxicity (visual assessment 0-10): 10
[2]; 12 g ai/ha, 2 weeks
  phytotoxicity (visual assessment 0-10): 10
[2]; 12 g ai/ha, 4 weeks
  phytotoxicity (visual assessment 0-10): 10
[2]; 25 g ai/ha, 2 weeks
  phytotoxicity (visual assessment 0-10): 10
[2]; 25 g ai/ha, 4 weeks
  phytotoxicity (visual assessment 0-10): 10
[2]; 50 g ai/ha, 2 weeks
  phytotoxicity (visual assessment 0-10): 10
[2]; 50 g ai/ha, 4 weeks
  phytotoxicity (visual assessment 0-10): 10
[2]; 100 g ai/ha, 2 weeks
  phytotoxicity (visual assessment 0-10): 10
[2]; 100 g ai/ha, 4 weeks
  phytotoxicity (visual assessment 0-10): 10
[2]; 200 g ai/ha, 2 weeks
  phytotoxicity (visual assessment 0-10): 10
[2]; 200 g ai/ha, 4 weeks
  phytotoxicity (visual assessment 0-10): 10
[2]; 400 g ai/ha, 2 weeks
  phytotoxicity (visual assessment 0-10): 10
[2]; 400 g ai/ha, 4 weeks
  phytotoxicity (visual assessment 0-10): 10
[3]; Post-emergence, 12 g ai/ha
  efficacy (0-100 scale): 60
[3]; Post-emergence, 25 g ai/ha
  efficacy (0-100 scale): 70
[3]; Post-emergence, 50 g ai/ha
  efficacy (0-100 scale): 80
[3]; Post-emergence, 100 g ai/ha
  efficacy (0-100 scale): 80
[3]; Pre-emergence, 12 g ai/ha
  efficacy (0-100 scale): 40
[3]; Pre-emergence, 25 g ai/ha
  efficacy (0-100 scale): 70
[3]; Pre-emergence, 50 g ai/ha
  efficacy (0-100 scale): 80
[3]; Pre-emergence, 100 g ai/ha
  efficacy (0-100 scale): 100
[4]; Post-emergence, 12 g ai/ha
  efficacy (0-100 scale): 50
[4]; Post-emergence, 25 g ai/ha
  efficacy (0-100 scale): 70
[4]; Post-emergence, 50 g ai/ha
  efficacy (0-100 scale): 80
[4]; Post-emergence, 100 g ai/ha
  efficacy (0-100 scale): 80
[4]; Pre-emergence, 12 g ai/ha
  efficacy (0-100 scale): 60
[4]; Pre-emergence, 25 g ai/ha
  efficacy (0-100 scale): 70
[4]; Pre-emergence, 50 g ai/ha
  efficacy (0-100 scale): 90
[4]; Pre-emergence, 100 g ai/ha
  efficacy (0-100 scale): 100
[5]; Post-emergence, 12 g ai/ha
  efficacy (0-100 scale): 80
[5]; Post-emergence, 25 g ai/ha
  efficacy (0-100 scale): 90
[5]; Post-emergence, 50 g ai/ha
  efficacy (0-100 scale): 100
[5]; Post-emergence, 100 g ai/ha
  efficacy (0-100 scale): 100
[5]; Pre-emergence, 12 g ai/ha
  efficacy (0-100 scale): 80
[5]; Pre-emergence, 25 g ai/ha
  efficacy (0-100 scale): 90
[5]; Pre-emergence, 50 g ai/ha
  efficacy (0-100 scale): 100
[5]; Pre-emergence, 100 g ai/ha
  efficacy (0-100 scale): 100
[6]; Post-emergence, 12 g ai/ha
  efficacy (0-100 scale): 40
[6]; Post-emergence, 25 g ai/ha
  efficacy (0-100 scale): 70
[6]; Post-emergence, 50 g ai/ha
  efficacy (0-100 scale): 80
[6]; Post-emergence, 100 g ai/ha
  efficacy (0-100 scale): 90
[6]; Pre-emergence, 12 g ai/ha
  efficacy (0-100 scale): 40
[6]; Pre-emergence, 25 g ai/ha
  efficacy (0-100 scale): 70
[6]; Pre-emergence, 50 g ai/ha
  efficacy (0-100 scale): 100
[6]; Pre-emergence, 100 g ai/ha
  efficacy (0-100 scale): 100
[7]; Post-emergence, 12 g ai/ha
  efficacy (0-100 scale): 80
[7]; Post-emergence, 25 g ai/ha
  efficacy (0-100 scale): 90
[7]; Post-emergence, 50 g ai/ha
  efficacy (0-100 scale): 90
[7]; Post-emergence, 100 g ai/ha
  efficacy (0-100 scale): 100
[7]; Pre-emergence, 12 g ai/ha
  efficacy (0-100 scale): 40
[7]; Pre-emergence, 25 g ai/ha
  efficacy (0-100 scale): 60
[7]; Pre-emergence, 50 g ai/ha
  efficacy (0-100 scale): 90
[7]; Pre-emergence, 100 g ai/ha
  efficacy (0-100 scale): 100
[8]; Post-emergence, 12 g ai/ha
  efficacy (0-100 scale): 80
[8]; Post-emergence, 25 g ai/ha
  efficacy (0-100 scale): 100
[8]; Post-emergence, 50 g ai/ha
  efficacy (0-100 scale): 100
[8]; Post-emergence, 100 g ai/ha
  efficacy (0-100 scale): 100
[8]; Pre-emergence, 12 g ai/ha
  efficacy (0-100 scale): 70
[8]; Pre-emergence, 25 g ai/ha
  efficacy (0-100 scale): 80
[8]; Pre-emergence, 50 g ai/ha
  efficacy (0-100 scale): 100
[8]; Pre-emergence, 100 g ai/ha
  efficacy (0-100 scale): 100
[9]; Post-emergence, 12 g ai/ha
  efficacy (0-100 scale): 10
[9]; Post-emergence, 25 g ai/ha
  efficacy (0-100 scale): 20
[9]; Post-emergence, 50 g ai/ha
  efficacy (0-100 scale): 30
[9]; Post-emergence, 100 g ai/ha
  efficacy (0-100 scale): 40
[9]; Pre-emergence, 12 g ai/ha
  efficacy (0-100 scale): 20
[9]; Pre-emergence, 25 g ai/ha
  efficacy (0-100 scale): 30
[9]; Pre-emergence, 50 g ai/ha
  efficacy (0-100 scale): 50
[9]; Pre-emergence, 100 g ai/ha
  efficacy (0-100 scale): 60
